Laboratory results as given in the OPERA property sets (Mansouri et al. 2018).

In order of rising log10 vapour pressure (mmHg):
1. CC(C)=NOCCOC(=O)[C@@H](C)Oc1ccc(Oc2cnc3cc(Cl)ccc3n2)cc1  -11.5
2. COC(=O)CSc1cc(/N=c2\sc(=O)n3n2CCCC3)c(F)cc1Cl  -8.48
3. CCCCCCCCCCCCCCCCCCCCCCCCCCC  -6.55
4. COP(=S)(OC)SCn1nnc2ccccc2c1=O  -5.8
5. CN(C)C(=O)Nc1ccccc1  -4.43
6. O=[N+]([O-])c1ccc(O)c([N+](=O)[O-])c1  -3.41
7. Clc1ccc(-c2ccc(Cl)cc2)cc1  -3.27
8. CCCCCCCCCCCCCS  -3.16
9. CCCCCCCCC(=O)OCCCC  -1.67
10. O=C=Nc1ccccc1  0.41
11. ClSC(Cl)(Cl)Cl  0.477
12. FC(F)(F)c1ccc(Cl)cc1  0.882
13. Fc1ccccc1  1.89

In order of rising melting point:
1. Cl/C=C\Cl  -64.9 °C
2. Fc1ccccc1  -42.2 °C
3. CCCCCCCCC(=O)OCCCC  -38 °C
4. FC(F)(F)c1ccc(Cl)cc1  -33 °C
5. FC(Cl)(Cl)c1ccccc1  -26.8 °C
6. O=P(O)(O)OCC(O)CO (centres undefined)  -25 °C
7. Clc1cccc2cccnc12  -20 °C
8. Clc1ccccc1Br  -12.3 °C
9. O=[N+]([O-])c1ccc(F)c([N+](=O)[O-])c1  25.8 °C
10. CCCCCCCCCCCCN1CC(C(=O)OC)CC1=O (centres undefined)  27.5 °C
11. Fc1ccc(N2CCNCC2)cc1  31.5 °C
12. C#CC(C)N(C(=O)CCl)c1ccccc1 (centres undefined)  43.5 °C
13. C=C(C(=O)O)C(F)(F)F  51.5 °C
14. CCCCCCCCCCCCCCCCCCCCCCCCCCC  59.5 °C
15. Cc1cc(N)ccc1N  64 °C
16. CC(C)CCCCCCO  64.5 °C
17. CC(C)=NOCCOC(=O)[C@@H](C)Oc1ccc(Oc2cnc3cc(Cl)ccc3n2)cc1  66.3 °C
18. CCCCCCC(O)C(=O)O (centres undefined)  70 °C
19. CC1=CC(=O)C=C(C)C1=O  72.5 °C
20. COP(=S)(OC)SCn1nnc2ccccc2c1=O  73 °C
21. N#CCc1ccccc1[N+](=O)[O-]  84 °C
22. COc1ccc(C[C@H]2c3cc(OC)c(OC)cc3CCN2C)cc1OC  89 °C
23. CCCCNC(=O)c1ccc(Cl)cc1O  91.5 °C
24. Cc1cccc2c1ccc1cc(C(C)C)ccc12  101 °C
25. Cc1ccc(O)cc1O  106 °C
26. COC(=O)CSc1cc(/N=c2\sc(=O)n3n2CCCC3)c(F)cc1Cl  106 °C
27. C=CCC1(C(C)CC)C(=O)NC(=O)NC1=O (centres undefined)  109 °C
28. CNCCOC(=O)/C=C1/CC[C@H]2[C@@H]([C@@H](O)C[C@@H]3[C@]2(C)CCC[C@]3(C)C(=O)OC)[C@H]1C  115 °C
29. O=[N+]([O-])c1ccc(O)c([N+](=O)[O-])c1  116 °C
30. CN(C)C(=O)Nc1ccccc1  134 °C
31. O=C(C(Cl)Cl)N(CCO)Cc1ccc(Oc2ccc([N+](=O)[O-])cc2)cc1  136 °C
32. Nc1c([N+](=O)[O-])cccc1[N+](=O)[O-]  142 °C
33. Clc1ccc(-c2ccc(Cl)cc2)cc1  149 °C
34. COc1ccccc1NC(N)=S  156 °C
35. CC(=O)Nc1ccc(C=O)cc1  157 °C
36. C=CCN1CCCC1CNC(=O)c1cc(S(=O)(=O)NC)c(N)cc1OC (centres undefined)  169 °C
37. Cc1cc(C(=O)NCCc2ccc(S(=O)(=O)NC(=O)NN3CCCCCC3)cc2)no1  189 °C
38. Cl.Nc1ccccc1  198 °C
39. Nc1ccc(C(=O)NCC(=O)O)cc1  198 °C
40. COc1ccc(C=Cc2ccc(OC)cc2)cc1  214 °C
41. O=C(O)c1ccc(O)c(O)c1O  221 °C
42. Oc1nc(O)c2nccnc2n1  348 °C

In order of rising boiling point:
1. Cl/C=C\Cl  54.4 °C
2. Fc1ccccc1  84.7 °C
3. C=CC=COC  91.5 °C
4. COc1ccco1  110 °C
5. FC(F)(F)c1ccc(Cl)cc1  138 °C
6. ClSC(Cl)(Cl)Cl  148 °C
7. C=CCC(C)(O)CC=C  158 °C
8. O=C=Nc1ccccc1  163 °C
9. FC(Cl)(Cl)c1ccccc1  179 °C
10. CCCOC(OCCC)OCCC  191 °C
11. Clc1ccccc1Br  204 °C
12. CC(C)CCCCCCO  206 °C
13. CC1=CC(=O)C[C@H](C)C1  208 °C
14. ClCCCOCCCCl  216 °C
15. CC(C)C1=CC(=O)C(C)CC1 (centres undefined)  236 °C
16. C=C(C)C1CC=C(CO)CC1 (centres undefined)  244 °C
17. Cc1ccc(O)cc1O  268 °C
18. Cc1cc(N)ccc1N  274 °C
19. Clc1cccc2cccnc12  288 °C
20. CCCCCCCCCCCCCS  291 °C
21. O=[N+]([O-])c1ccc(F)c([N+](=O)[O-])c1  296 °C
22. Clc1ccc(-c2ccc(Cl)cc2)cc1  317 °C
23. CC(C)CC(=O)OCC(COC(=O)CC(C)C)OC(=O)CC(C)C  332 °C
24. Cc1cccc2c1ccc1cc(C(C)C)ccc12  390 °C
25. CCCCCCCCCCCCCCCCCCCCCCCCCCC  442 °C

In order of falling log10 Henry constant (atm·m³/mol):
1. Cl/C=C\Cl  -2.17
2. Fc1ccccc1  -2.2
3. Clc1ccc(-c2ccc(Cl)cc2)cc1  -3.7
4. Clc1cc(Cl)c(Cl)c(-c2c(Cl)c(Cl)cc(Cl)c2Cl)c1Cl  -4.74
5. O=[N+]([O-])c1ccc(O)c([N+](=O)[O-])c1  -7.07

In order of rising log10 Koa:
1. Cl/C=C\Cl  2.56
2. Clc1ccc(-c2ccc(Cl)cc2)cc1  7.68
3. Clc1ccc2oc3c(Cl)c(Cl)c(Cl)c(Cl)c3c2c1Cl  10.9

`CCCCCCCCCCCCCCCCCCCCCCCCCCC` gave a log10 biodegradation half-life (days) of 2.15.

With `Brc1cc(Br)c(Br)c(Oc2ccc(Br)c(Br)c2Br)c1` the ready biodegradability was “not readily biodegradable”.
For `COP(=S)(OC)SCn1nnc2ccccc2c1=O`, the ready biodegradability was “readily biodegradable”.
For `O=[N+]([O-])c1ccc(O)c([N+](=O)[O-])c1`, the ready biodegradability was “not readily biodegradable”.
For `CN(C)C(=O)Nc1ccccc1`, the ready biodegradability was “readily biodegradable”.
For `CC(=O)C(N=Nc1ccc(-c2ccc(N=NC(C(C)=O)C(=O)Nc3ccccc3C)c(Cl)c2)cc1Cl)C(=O)Nc1ccccc1C` (centres undefined), the ready biodegradability was “not readily biodegradable”.
In the case of `Nc1c(Oc2ccc(Br)cc2)cc(O)c2c1C(=O)c1ccccc1C2=O`, the ready biodegradability is reported as “not readily biodegradable”.
With `C1=CCC(c2ccccc2)CC1` (centres undefined) the ready biodegradability was “readily biodegradable”.

In order of rising log10 Koc (L/kg):
1. CN(C)C(=O)Nc1ccccc1  1.4
2. COP(=S)(OC)SCn1nnc2ccccc2c1=O  2.28
3. Clc1cc(Cl)c(Cl)c(-c2c(Cl)c(Cl)cc(Cl)c2Cl)c1Cl  6.36
